# Laboratory results published in patent US9345245B2, “Synthetic compounds for vegetative ABA responses” (THE REGENTS OF THE UNIVERSITY OF CALIFORNIA, priority 2012, dated 2016).
# Key:
# PYR/PYL receptors = assay: Yeast two-hybrid agonist assay (PYR/PYL receptor - PP2C HAB1 interaction); assay type: cell-based, Arabidopsis; conditions: 5 uM of test chemicals
# Method: FIG. 1. Novel ABA agonists bind to multiple PYR/PYL. (A) Chemical structure of naturally occurring (+)-ABA, its (-) analog and selected ABA agonists. (B) Yeast two-hybrid agonist assays of PYR/PYL receptor sensitivity to 5 uM of test chemicals. Specific PYR/PYL Receptors and the PP2C HAB1 are expressed as Gal4 BD or AD fusion proteins respectively, as described in the text. A previously described yeast two-hybrid system was used in high throughput screens (HTS) to identify ABA agonists (see, Peterson F C, et al. (2010) Structural basis for selective activation of ABA receptors. Nature Structural & Molecular Biology 17(9):1109-1111). In this system the agonist promoted receptor-PP2C interaction drives expression of a URA3 or HIS3 reporter gene and rescues uracil or histidine auxotrophy of parental strains (Peterson F C, et al. (2010); […], Harlow E, & Boeke J D (1996) Reverse two-hybrid and one-hybrid systems to detect dissociation of protein-protein and DNA-protein interactions. Proceedings of the National Academy of Sciences of the United States of America 93(19):10315-10320). HTS were conducted using 5 different reporter strains that express binding domain (BD) fusions to […]3 or PYL4; these were co-expressed with activation domain (AD) fusions to HAB1 (pACT-HAB1); the constructs used have been described previously (Park et al. 2009). […]
# ABA-responsive genes [1] = assay: Quantitative RT-PCR of ABA-responsive genes in Arabidopsis; assay type: in vivo
# Method: FIG. 9. LC66C6 induces numerous ABA-responsive genes. […] Ten-day old seedlings were treated with carrier solvent (DMSO) or either 25 μM ABA, pyrabactin or LC66C6 for 8 hours. Total RNA was then prepared labeled and hybridized to ATH1 microarrays. Data plotted are log 2 transformed average expression values for ˜13K probes that were detectable across all experiments. Data shown are averages determined from triplicate biological replicates. (C) and (D) show the expression of a reporter gene in different plant tissues after treatment with vehicle (DMSO), pyrabactin, LC66C6, or (+)-ABA.
# Total RNA was isolated using Plant RNA purification reagent (Invitrogen, USA) according to the manufacturer's instructions. cDNA was synthesized from 1 μg of total RNA using the QantiTec reverse transcription kit (Qiagen, USA). Real-time PCR using Maxima® SYBR Green/Fluorescein qPCR Master Mix (Fermentas) was performed with the iQ5 real-time PCR detection system (Bio-Rad, Hercules, Calif.). The relative amounts of target mRNAs were determined using the relative standard curve method and were normalized by relative amount of internal control mRNA. Biological triplicate experiments were performed.
# [2] = test system: Physcomitrella patens protonema; assay: Protonema growth of moss; assay type: in vivo; conditions: 200 μM, 10 days
# Method: (§1) FIG. 17. The effect of ABA and its agonists in Physcomitrella patens and Chlamydomonas. Protonemal growth images (A) and quantitative analysis (B) of the effects of ABA and agonists on Phsycomitrella patens. Protonema were grown on 200 μM of specific test chemical for 10 days. […] Pyrabactin bleached protonema. (C) The expression of ABA-responsive genes of Physcomitrella patens. Protonema were treated with 200 μM chemical solutions for 3 h. (D) Colony growth of Chlamydomonas on the chemical with salinity stress and osmotic stress. There was no effect of ABA and LC66C6 on the Chlamydomonas growth with and without stresses.
# Chlamydomonas = assay: Colony growth of Chlamydomonas with and without salinity and osmotic stress; assay type: in vivo; conditions: in vivo
# Method: as §1
# ABA-responsive genes [3] = conditions: higher concentrations; Park et al., 2009; cited from earlier work
compound,measurement,setting,value
O=S(=O)(NCc1ccccn1)c1ccc(Br)c2ccccc12 [pyrabactin],receptor selectivity in yeast two-hybrid assay,PYR/PYL receptors,much greater receptor selectivity than ABA or the new agonist LC66C6
same,"induction of MAPKKK18, RD29A, and RD29B mRNAs","ABA-responsive genes [1]; Col and Ler ecotypes and pyr1, pyl1, ply2, pyl3 and pyl4 single mutants",did not significantly induce expression of any of the genes assayed
same,"expression of ABF3, GBF3, NCED3, and RD29A",ABA-responsive genes [1]; Col wild-type plants,did not induce significant expression of any genes analyzed
same,expression of RD29B and MAPKKK18 mRNA,ABA-responsive genes [1]; wild-type plants,did not induce gene expression
same,bleaching of protonema (toxicity),[2],bleached the protonema
same,bleaching of Chlamydomonas (toxicity),Chlamydomonas,bleached the Chlamydomonas
same,ABA-related gene expression in seedlings,ABA-responsive genes [3],induce modest ABA-related gene expression
